# Data published in ChEMBL document CHEMBL1201862, “PubChem BioAssay data set” (2004).
# Calls of active or inactive are those of the source.
# How the values were obtained:
# [1] = target: T1, E3 ubiquitin-protein ligase XIAP (Homo sapiens, UniProt P98170); experiment: small molecules displacing peptide from XIAP – biochemical, IAP family, fluorescence polarization (AID 1018); assay type: functional
# [2] = target: T1, E3 ubiquitin-protein ligase XIAP; experiment: Counter Screen using XIAP-Bir3 for Chemical Antagonists of Bir1/2 domains of IAP-family anti-apoptotic proteins. [Related pubchem assays (depositor defined):AID1018, AID1449, AID1514, AID1638, AID1749, AID1750, AID488957, AID488963]
# [3] = system: Vibrio harveyi; experiment: Quorum Sensing, LuxS, LuxPQ Measured in Microorganism System Using Plate Reader - 2035-01_Inhibitor_DoseNoFile_DryPowder_Activity. [Related pubchem assays (depositor defined):AID2106]; assay type: functional, organism-based
# [4] = system: Vibrio harveyi; experiment: LuxS/LuxPQ-dependent luminescence inhibition, V. harveyi – dry powder, set 2, dose response (AID 493072); assay type: functional, organism-based
# [5] = target: T2, Coagulation factor XII (Homo sapiens, UniProt P00748); experiment: activated coagulation factor XII inhibitor potency, concentration-effect curve, cell-free (AID 716); assay type: functional
# T2 sequence (P00748 whole entry): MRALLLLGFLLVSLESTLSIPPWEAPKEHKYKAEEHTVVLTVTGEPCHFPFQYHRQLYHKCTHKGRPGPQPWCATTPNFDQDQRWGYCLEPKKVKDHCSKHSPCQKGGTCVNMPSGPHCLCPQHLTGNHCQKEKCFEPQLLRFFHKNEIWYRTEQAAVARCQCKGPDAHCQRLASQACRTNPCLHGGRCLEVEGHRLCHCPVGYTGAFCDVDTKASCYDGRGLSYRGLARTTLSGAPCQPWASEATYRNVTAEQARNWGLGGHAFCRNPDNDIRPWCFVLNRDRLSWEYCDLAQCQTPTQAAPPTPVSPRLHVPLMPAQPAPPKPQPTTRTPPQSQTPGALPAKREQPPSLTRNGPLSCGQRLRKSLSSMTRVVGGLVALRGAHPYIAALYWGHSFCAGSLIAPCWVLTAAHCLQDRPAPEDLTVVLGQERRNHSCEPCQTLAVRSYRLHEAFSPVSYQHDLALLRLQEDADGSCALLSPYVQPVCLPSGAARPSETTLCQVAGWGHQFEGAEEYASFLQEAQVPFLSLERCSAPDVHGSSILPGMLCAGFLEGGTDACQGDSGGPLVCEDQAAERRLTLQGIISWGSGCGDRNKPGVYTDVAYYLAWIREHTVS
# [6] = target: Cytochrome P450 2C19 (Homo sapiens, UniProt P33261); experiment: Cytochrome panel assay with activity outcomes. Panel member name: p450-cyp2c19 Compounds with AC50 equal or less than 10 uM are considered active; assay type: functional; conditions: read-out: AC50
# [7] = target: T3, Voltage-gated N-type calcium channel alpha-1B subunit/Amyloid beta A4 precursor protein-binding family A member 1 (Homo sapiens, UniProt Q00975+Q02410); assay type: protein assay
# [8] = target: T3, Voltage-gated N-type calcium channel alpha-1B subunit/Amyloid beta A4 precursor protein-binding family A member 1; assay type: protein assay; remark: listed apart in the source
# [9] = A cytotoxicity screen of small molecule inhibitors of the PhoP region in Salmonella typhi identified in the primary screen. [Related pubchem assays: 1850, 1864, 1985 ]; assay type: functional
# [10] = target: Glucose-6-phosphate 1-dehydrogenase (Homo sapiens, UniProt P11413); experiment: inhibition of Homo sapiens G6PD, dose series – biochemical, fluorescence, selectivity assay for P. falciparum G6PD inhibitor project, dose response (AID 504792); assay type: functional
# [11] = system: HEK293; experiment: inhibition of NOD1-driven NF-kB reporter – cell-based, luminescence, uHTS, primary screen (AID 1578); assay type: functional; conditions: Homo sapiens
# [12] = system: HEK293; experiment: NOD2 signaling inhibitors in MDP-stimulated cells, cell-based, uHTS, luminescence (AID 2001); assay type: functional; conditions: Homo sapiens
# [13] = system: HEK293; experiment: cells; assay type: functional, cell-based; conditions: Homo sapiens
# [14] = target: Nucleotide-binding oligomerization domain-containing protein 2 (Homo sapiens, UniProt Q9HC29); experiment: inhibition of NOD2-driven NF-kB reporter – cell-based, luminescence, uHTS, HEK293 (AID 1566); assay type: functional
# [15] = system: HEK293; experiment: cells; assay type: functional, cell-based; conditions: Homo sapiens; remark: listed apart in the source
# [16] = system: HEK293; experiment: cells; assay type: functional, cell-based; conditions: Homo sapiens; remark: listed apart in the source
# [17] = target: T4, G-protein coupled receptor 35 (Homo sapiens, UniProt Q9HC97); experiment: SAR analysis of Agonists of the GPR35 Receptor using an Image-Based Assay - Set 3. [Related pubchem assays (depositor defined):AID1961, AID1965]; assay type: functional
# [18] = target: T5, Cannabinoid receptor 2 (Homo sapiens, UniProt P34972); experiment: SAR analysis of antagonists of the Cannabinoid Receptor 2 using an Image-Based Assay - Set 2. [Related pubchem assays (depositor defined):AID1961, AID1965]; assay type: functional
# [19] = target: T6, Cannabinoid receptor 1 (Homo sapiens, UniProt P21554); experiment: SAR analysis of antagonists of the Cannabinoid Receptor 1 using an Image-Based Assay - Set 3. [Related pubchem assays (depositor defined):AID1961, AID1965]; assay type: functional
# [20] = target: T5, Cannabinoid receptor 2; experiment: SAR analysis of agonists of the Cannabinoid Receptor 2 using an Image-Based Assay - Set 2. [Related pubchem assays (depositor defined):AID1961, AID1965]; assay type: functional
# [21] = target: T6, Cannabinoid receptor 1; experiment: SAR analysis of agonists of the Cannabinoid Receptor 1 using an Image-Based Assay - Set 3. [Related pubchem assays (depositor defined):AID1961, AID1965]; assay type: functional
# [22] = target: T4, G-protein coupled receptor 35; experiment: SAR analysis of Antagonists of the GPR35 Receptor using an Image-Based Assay - Set 4. [Related pubchem assays (depositor defined):[…]]; assay type: functional
# [23] = target: G-protein coupled receptor 55 (Homo sapiens, UniProt Q9Y2T6); experiment: SAR analysis of selective Agonists of GPR55 using an Image-Based Assay - Set 2. [Related pubchem assays (depositor defined):AID1961, AID1965]; assay type: functional
# T5 sequence (P34972 whole entry): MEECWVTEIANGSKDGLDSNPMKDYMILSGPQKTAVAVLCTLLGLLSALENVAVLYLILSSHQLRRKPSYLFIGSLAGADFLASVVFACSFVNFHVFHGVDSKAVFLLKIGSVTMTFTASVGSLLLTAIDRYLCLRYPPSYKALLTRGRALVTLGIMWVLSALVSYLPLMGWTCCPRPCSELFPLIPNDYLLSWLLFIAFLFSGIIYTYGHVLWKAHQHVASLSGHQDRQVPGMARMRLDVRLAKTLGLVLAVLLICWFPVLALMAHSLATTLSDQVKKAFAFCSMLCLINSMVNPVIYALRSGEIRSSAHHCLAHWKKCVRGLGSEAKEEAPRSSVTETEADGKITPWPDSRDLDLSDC
# T1 sequence (P98170 whole entry): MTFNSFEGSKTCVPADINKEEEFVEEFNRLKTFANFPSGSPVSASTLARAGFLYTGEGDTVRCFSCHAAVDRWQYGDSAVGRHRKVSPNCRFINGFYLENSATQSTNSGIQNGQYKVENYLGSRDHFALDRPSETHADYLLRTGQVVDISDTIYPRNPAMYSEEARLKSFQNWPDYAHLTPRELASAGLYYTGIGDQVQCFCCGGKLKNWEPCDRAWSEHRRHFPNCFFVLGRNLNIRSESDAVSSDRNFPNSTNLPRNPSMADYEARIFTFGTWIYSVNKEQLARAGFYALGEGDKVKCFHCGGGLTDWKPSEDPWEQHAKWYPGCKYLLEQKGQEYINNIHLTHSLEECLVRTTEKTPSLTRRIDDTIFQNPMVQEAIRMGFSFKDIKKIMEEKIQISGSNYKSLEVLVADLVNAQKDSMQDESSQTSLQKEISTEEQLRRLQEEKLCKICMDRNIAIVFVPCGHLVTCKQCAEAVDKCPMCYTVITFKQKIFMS
# T4 sequence (Q9HC97 whole entry): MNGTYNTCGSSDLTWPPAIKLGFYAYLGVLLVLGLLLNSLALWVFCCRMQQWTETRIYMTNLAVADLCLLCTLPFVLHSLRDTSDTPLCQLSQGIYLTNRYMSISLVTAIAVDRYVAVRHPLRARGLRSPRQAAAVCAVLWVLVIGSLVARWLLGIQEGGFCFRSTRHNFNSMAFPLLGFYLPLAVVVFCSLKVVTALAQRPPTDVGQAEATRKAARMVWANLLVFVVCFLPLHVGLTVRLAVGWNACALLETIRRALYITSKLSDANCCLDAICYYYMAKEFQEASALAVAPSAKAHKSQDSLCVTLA
# T3 sequence (Q00975 whole entry): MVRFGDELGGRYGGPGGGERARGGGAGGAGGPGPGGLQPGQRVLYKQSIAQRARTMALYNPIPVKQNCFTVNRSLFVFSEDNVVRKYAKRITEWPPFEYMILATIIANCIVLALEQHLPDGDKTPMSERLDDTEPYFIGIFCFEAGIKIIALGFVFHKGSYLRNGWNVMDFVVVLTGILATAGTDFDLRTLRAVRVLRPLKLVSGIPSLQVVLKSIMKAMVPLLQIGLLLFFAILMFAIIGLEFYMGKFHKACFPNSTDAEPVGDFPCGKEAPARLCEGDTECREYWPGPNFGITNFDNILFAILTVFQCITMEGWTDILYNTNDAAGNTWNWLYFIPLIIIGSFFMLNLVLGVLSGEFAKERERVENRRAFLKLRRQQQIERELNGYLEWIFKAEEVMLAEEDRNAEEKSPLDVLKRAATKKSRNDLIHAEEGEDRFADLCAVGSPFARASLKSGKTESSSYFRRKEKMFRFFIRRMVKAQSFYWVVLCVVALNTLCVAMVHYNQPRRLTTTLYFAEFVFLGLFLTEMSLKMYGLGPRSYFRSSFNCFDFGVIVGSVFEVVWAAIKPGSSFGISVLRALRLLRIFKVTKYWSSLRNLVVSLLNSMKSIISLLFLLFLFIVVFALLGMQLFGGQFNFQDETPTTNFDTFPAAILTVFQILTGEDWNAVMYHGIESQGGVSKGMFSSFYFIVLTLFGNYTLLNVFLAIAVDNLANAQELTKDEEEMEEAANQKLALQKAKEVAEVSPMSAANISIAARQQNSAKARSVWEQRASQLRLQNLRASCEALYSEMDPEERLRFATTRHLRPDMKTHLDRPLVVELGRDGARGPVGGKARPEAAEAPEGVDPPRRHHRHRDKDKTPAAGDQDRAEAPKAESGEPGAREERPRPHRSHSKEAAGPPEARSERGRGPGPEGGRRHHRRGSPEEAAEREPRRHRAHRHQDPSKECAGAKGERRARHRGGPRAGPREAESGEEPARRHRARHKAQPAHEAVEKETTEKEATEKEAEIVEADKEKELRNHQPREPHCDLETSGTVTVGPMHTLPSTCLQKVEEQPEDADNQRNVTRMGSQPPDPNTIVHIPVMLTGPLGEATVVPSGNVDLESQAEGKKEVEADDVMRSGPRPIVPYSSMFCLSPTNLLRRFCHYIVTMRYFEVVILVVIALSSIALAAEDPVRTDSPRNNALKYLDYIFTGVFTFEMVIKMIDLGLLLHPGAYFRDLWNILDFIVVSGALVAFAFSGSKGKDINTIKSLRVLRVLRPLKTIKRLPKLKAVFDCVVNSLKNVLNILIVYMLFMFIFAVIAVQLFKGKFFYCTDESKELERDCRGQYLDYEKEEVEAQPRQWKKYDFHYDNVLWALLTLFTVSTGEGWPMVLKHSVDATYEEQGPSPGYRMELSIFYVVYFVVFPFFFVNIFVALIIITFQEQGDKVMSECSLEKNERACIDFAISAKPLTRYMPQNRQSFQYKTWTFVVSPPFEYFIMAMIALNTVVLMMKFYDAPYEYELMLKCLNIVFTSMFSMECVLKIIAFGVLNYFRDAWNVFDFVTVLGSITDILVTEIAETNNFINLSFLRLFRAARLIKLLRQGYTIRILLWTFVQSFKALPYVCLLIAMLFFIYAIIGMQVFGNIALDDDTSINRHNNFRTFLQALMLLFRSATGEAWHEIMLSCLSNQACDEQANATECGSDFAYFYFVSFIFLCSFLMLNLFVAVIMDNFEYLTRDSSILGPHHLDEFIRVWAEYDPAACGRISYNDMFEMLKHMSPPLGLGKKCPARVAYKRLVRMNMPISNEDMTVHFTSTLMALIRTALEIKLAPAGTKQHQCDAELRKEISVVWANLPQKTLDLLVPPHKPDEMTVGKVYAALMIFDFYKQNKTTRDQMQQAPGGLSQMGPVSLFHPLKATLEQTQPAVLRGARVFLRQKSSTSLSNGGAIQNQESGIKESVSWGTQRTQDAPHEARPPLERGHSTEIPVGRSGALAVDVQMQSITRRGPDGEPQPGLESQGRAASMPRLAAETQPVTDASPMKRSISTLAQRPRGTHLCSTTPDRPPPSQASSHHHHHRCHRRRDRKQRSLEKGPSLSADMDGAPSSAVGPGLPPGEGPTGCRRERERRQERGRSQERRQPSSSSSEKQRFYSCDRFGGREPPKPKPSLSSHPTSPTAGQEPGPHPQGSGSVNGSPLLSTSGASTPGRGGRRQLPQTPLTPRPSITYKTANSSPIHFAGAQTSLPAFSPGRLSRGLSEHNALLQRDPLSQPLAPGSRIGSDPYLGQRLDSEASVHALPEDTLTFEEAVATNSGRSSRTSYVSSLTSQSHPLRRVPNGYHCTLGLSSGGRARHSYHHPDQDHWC
# T3 sequence (Q02410 whole entry): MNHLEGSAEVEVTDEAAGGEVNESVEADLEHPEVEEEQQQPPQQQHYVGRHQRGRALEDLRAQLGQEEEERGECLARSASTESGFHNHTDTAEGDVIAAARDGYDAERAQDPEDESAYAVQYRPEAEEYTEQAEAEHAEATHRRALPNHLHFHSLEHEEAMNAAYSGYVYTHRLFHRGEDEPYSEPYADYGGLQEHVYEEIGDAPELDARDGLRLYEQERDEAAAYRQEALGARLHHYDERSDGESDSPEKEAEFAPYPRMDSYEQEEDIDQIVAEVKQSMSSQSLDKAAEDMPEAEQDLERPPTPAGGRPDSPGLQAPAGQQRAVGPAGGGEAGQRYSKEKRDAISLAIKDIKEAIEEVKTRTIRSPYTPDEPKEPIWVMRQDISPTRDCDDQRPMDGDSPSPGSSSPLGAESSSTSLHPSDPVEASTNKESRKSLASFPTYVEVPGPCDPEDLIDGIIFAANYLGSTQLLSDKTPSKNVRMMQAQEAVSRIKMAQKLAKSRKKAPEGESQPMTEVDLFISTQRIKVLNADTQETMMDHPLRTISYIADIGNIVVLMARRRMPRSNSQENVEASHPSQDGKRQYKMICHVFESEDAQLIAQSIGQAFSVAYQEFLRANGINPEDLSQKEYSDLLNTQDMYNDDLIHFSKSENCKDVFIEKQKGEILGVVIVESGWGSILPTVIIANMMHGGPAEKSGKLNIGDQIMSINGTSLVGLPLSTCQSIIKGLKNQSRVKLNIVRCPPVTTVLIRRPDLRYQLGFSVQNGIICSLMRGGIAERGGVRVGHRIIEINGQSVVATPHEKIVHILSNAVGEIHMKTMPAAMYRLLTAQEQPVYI
# T6 sequence (P21554 whole entry): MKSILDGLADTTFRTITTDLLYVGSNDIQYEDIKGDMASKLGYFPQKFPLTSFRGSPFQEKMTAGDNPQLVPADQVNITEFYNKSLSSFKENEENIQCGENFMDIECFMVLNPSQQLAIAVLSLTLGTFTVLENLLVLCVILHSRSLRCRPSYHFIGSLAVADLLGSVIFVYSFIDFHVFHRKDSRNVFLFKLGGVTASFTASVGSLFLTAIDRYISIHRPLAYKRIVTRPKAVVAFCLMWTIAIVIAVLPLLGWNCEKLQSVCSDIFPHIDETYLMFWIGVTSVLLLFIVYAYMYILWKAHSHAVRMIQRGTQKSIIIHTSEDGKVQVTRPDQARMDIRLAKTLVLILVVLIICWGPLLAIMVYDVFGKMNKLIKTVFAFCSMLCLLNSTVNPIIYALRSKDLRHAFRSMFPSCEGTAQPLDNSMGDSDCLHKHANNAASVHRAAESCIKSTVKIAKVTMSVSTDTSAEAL
compound,measurement,setting,value
COc1cc(C(=O)O)cc(NC(=O)c2cccs2)c1OC,IC50,[1],> 100 µM (not active)
same,IC50,[2],> 100 µM (inactive)
CCc1ccc(S(=O)(=O)Nc2ccc(Br)cn2)cc1,AC50,[3],3.22 µM (active)
same,AC50,[4],8.16 µM (active)
CCOC(=O)N1CCN(C(=O)c2ccc(Cl)c(S(=O)(=O)N3CCOCC3)c2)CC1,IC50,[5],> 50 µM (inactive)
same,AC50,[6],39.8 µM (inconclusive)
COc1cc(OC)c(C2CC(=O)N3CN(c4ccccc4)CSC3=C2C#N)cc1OC (stereo not drawn),IC50,[7],6.01 µM (active)
same,IC50,[8],> 50 µM (inactive)
same,EC50,[9],> 50 µM (active)
same,IC50,[10],> 80 µM (inactive)
Cc1c(C(=O)N2CCN(c3ccc(F)cc3)CC2)sc2ncnc(N3CCN(c4ccccn4)CC3)c12,EC50,[11],5.71 µM (active)
same,IC50,[12],7.42 µM (inactive)
same,IC50,[13],4.81 µM (active)
same,EC50,[14],4.24 µM (active)
same,IC50,[15],16.8 µM (active)
same,IC50,[16],11.9 µM (active)
CN(C)S(=O)(=O)c1ccc(N2CCCC2)c(C(=O)N2CCN(c3cccc(Cl)c3)CC2)c1,EC50,[17],> 32 µM (inactive)
same,IC50,[18],> 32 µM (inactive)
same,IC50,[19],27.1 µM (inactive)
same,EC50,[20],> 32 µM (inactive)
same,EC50,[21],> 32 µM (inactive)
same,IC50,[22],> 32 µM (inactive)
same,EC50,[23],0.608 µM (active)
